Measurements published in the NIST ThermoML archive (doi:10.1021/je201140q).
± gives the expanded uncertainty stated by the source.

Legend:
[1] = refractive index (Na D-line) (dimensionless); conditions: 298.15 K; 101.33 kPa; Liquid; Standard Abbe refractometry
[2] = for surface tension liquid-gas: 303.15 K, Maximal bubble pressure; for vapor or sublimation pressure / Normal boiling temperature: Ebulliometric method (Recirculating still)
[3] = xn = mol fraction of the nth substance listed; conditions: for mass density: 298.15 K, 101.3 kPa, Liquid, Vibrating tube method; for surface tension liquid-gas: 303.15 K, Maximal bubble pressure

C1CCOCC1 [tetrahydropyran]
Conditions | refractive index | surface tension liquid-gas [mN/m]
[1] | 1.42 ± 0.00031 | –
[2] | – | 27.1 ± 0.27

Conditions | mass density [kg/m3]
[2], 298.15 K, 101.3 kPa, Liquid, Vibrating tube method | 879.03 ± 0.09

[2], Liquid
Conditions | vapor or sublimation pressure [kPa]
312.59 K | 18.01 ± 0.07
319.62 K | 24.01 ± 0.07
325.36 K | 30.01 ± 0.08
331.7 K | 38.01 ± 0.08
336.4 K | 45.01 ± 0.09
339.33 K | 50 ± 0.3
339.98 K | 51.01 ± 0.09
344.26 K | 59.01 ± 0.1
347.64 K | 66.01 ± 0.11
350.74 K | 73.01 ± 0.11
351.53 K | 75 ± 0.56
353.61 K | 80.01 ± 0.12
356.29 K | 87.01 ± 0.13
358.81 K | 94.01 ± 0.13
358.85 K | 94 ± 0.75
361.55 K | 102.11 ± 0.14

Conditions | Normal boiling temperature [°C]
[2], Liquid | 88.21 ± 0.2

C1CCOCC1 [tetrahydropyran] + CCO
[3]
Conditions | mass density [kg/m3] | surface tension liquid-gas [mN/m]
x2 = 0 | 879.03 ± 0.09 | 27.1 ± 0.27
x2 = 0.03 | 877.14 ± 0.15 | –
x2 = 0.068 | – | 26.91 ± 0.27
x2 = 0.115 | 871.86 ± 0.15 | –
x2 = 0.122 | – | 26.76 ± 0.27
x2 = 0.193 | 866.85 ± 0.16 | –
x2 = 0.223 | – | 26.5 ± 0.27
x2 = 0.299 | 859.54 ± 0.17 | –
x2 = 0.323 | – | 25.98 ± 0.27
x2 = 0.42 | – | 25.34 ± 0.27
x2 = 0.426 | 849.89 ± 0.18 | –
x2 = 0.496 | 844.01 ± 0.2 | –
x2 = 0.52 | – | 24.9 ± 0.27
x2 = 0.599 | 834.65 ± 0.22 | –
x2 = 0.604 | – | 24.35 ± 0.27
x2 = 0.622 | – | 24.24 ± 0.27
x2 = 0.657 | – | 24.07 ± 0.27
x2 = 0.707 | – | 23.81 ± 0.26
x2 = 0.716 | 822.74 ± 0.24 | –
x2 = 0.722 | – | 23.64 ± 0.26
x2 = 0.799 | 813.13 ± 0.27 | –
x2 = 0.821 | – | 23.01 ± 0.26
x2 = 0.91 | 798.6 ± 0.29 | –
x2 = 0.918 | – | 22.42 ± 0.26
x2 = 0.959 | 791.41 ± 0.32 | –
x2 = 0.963 | – | 22 ± 0.26

CCO [ethanol] + C1CCOCC1
[3], x1 = 1
Conditions | mass density [kg/m3] | surface tension liquid-gas [mN/m]
– | 785.11 ± 0.12 | 21.7 ± 0.26

CCO [ethanol]
Conditions | refractive index | surface tension liquid-gas [mN/m]
[1] | 1.36068 ± 0.00031 | –
[2] | – | 21.7 ± 0.26

[2], Liquid
Conditions | vapor or sublimation pressure [kPa]
334.57 K | 50 ± 0.25
344.02 K | 75 ± 0.41
349.56 K | 94 ± 0.56

Conditions | Normal boiling temperature [°C]
[2], Liquid | 78.30 ± 0.2
